US11739074B2, “Ras inhibitors” (Revolution Medicines, Inc., priority 2019, dated 2023)
Read-outs that look alike come from different tables or passages of the source.

Experiments:
[1] = target: KRAS G13D (Homo sapiens, UniProt P01116+P62937, G13D); test: Ras-Raf disruption/FRET/MOA assay, KRAS G13D; assay type: biochemical; settings: disruption of BRAF RBD binding, with Cyclophilin A; read-out: KRAS G13D FRET IC50
From the text: (§1) Disruption of B-Raf Ras-Binding Domain (BRAF^RBD) Interaction with K-Ras by Compounds of the Invention (Also Called a FRET Assay or an MOA Assay)
(§2) Note—The following protocol describes a procedure for monitoring disruption of K-Ras G12C (GMP-PNP) binding to BRAF^RBD by a compound of the invention. This protocol may also be executed substituting other Ras proteins or nucleotides, such as K-Ras G12D and K-Ras G13D.
(§3) The purpose of this biochemical assay was to measure the ability of test compounds to facilitate ternary complex formation between a nucleotide-loaded K-Ras isoform and Cyclophilin A; the resulting ternary complex disrupts binding to a BRAF^RBD construct, inhibiting K-Ras signaling through a RAF effector.
(§4) In assay buffer containing 25 mM HEPES pH 7.3, 0.002% Tween20, 0.1% BSA, 100 mM NaCl and 5 mM MgCl2, tagless Cyclophilin A, His6-K-Ras-GMPPNP, and GST-BRAF^RBD were combined in a 384-well assay plate at final concentrations of 25 μM, 12.5 nM, and 50 nM, respectively. Compound was present in plate wells as a 10-point 3-fold dilution series starting at a final concentration of 30 μM. After incubation at 25° C. for 3 hours, a mixture of anti-His Eu-W1024 and anti-GST allophycocyanin was then added to assay sample wells at final concentrations of 10 nM and 50 nM, respectively, and the reaction incubated for an additional 1.5 hours. […] Compounds that facilitate disruption of a K-Ras:RAF complex were identified as those eliciting a decrease in the TR-FRET ratio relative to DMSO control wells.

[2] = target: KRAS G12S (Homo sapiens, UniProt P01116+P62937, G12S); test: Ras-Raf disruption/FRET/MOA assay, KRAS G12S; assay type: biochemical; settings: disruption of BRAF RBD binding, with Cyclophilin A; read-out: KRAS G12S FRET IC50
Sequence of KRAS G12S (P01116 1-169 isoform P01116-2 G12S limits assumed): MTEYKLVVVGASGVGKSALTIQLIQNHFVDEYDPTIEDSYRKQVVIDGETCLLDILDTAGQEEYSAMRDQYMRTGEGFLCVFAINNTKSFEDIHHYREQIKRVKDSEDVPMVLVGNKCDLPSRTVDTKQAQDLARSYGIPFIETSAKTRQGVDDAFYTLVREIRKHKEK
Sequence of KRAS G12S (P62937 whole entry): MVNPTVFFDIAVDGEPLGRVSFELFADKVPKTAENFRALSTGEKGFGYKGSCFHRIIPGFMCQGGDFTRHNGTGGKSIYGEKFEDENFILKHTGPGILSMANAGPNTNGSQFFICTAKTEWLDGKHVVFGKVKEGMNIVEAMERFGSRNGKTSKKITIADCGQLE
From the text: as §1, §2, §3, §4

[3] = target: KRAS G12D (Homo sapiens, UniProt P01116+P62937, G12D); test: Ras-Raf disruption/FRET/MOA assay, KRAS G12D; assay type: biochemical; settings: disruption of BRAF RBD binding, with Cyclophilin A; read-out: KRAS G12D FRET IC50
Sequence of KRAS G12D (P01116 1-169 isoform P01116-2 G12D limits assumed): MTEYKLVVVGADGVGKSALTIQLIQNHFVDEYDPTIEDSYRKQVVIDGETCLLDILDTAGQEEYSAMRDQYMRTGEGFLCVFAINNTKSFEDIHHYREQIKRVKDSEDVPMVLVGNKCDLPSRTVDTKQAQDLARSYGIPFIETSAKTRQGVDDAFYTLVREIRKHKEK
Sequence of KRAS G12D (P62937 whole entry): as the sequence (P62937 whole entry) above
From the text: as §1, §2, §3, §4

[4] = target: KRAS WT (Homo sapiens, UniProt P01116+P62937); test: Ras-Raf disruption/FRET/MOA assay, KRAS WT; assay type: biochemical; settings: disruption of BRAF RBD binding, with Cyclophilin A; read-out: KRAS WT FRET IC50
Sequence of KRAS WT (P01116 1-169 isoform P01116-2 limits assumed): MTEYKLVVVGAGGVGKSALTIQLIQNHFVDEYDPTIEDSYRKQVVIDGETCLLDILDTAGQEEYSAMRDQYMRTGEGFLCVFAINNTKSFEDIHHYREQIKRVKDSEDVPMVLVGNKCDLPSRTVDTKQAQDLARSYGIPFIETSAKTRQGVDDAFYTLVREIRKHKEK
Sequence of KRAS WT (P62937 whole entry): as the sequence (P62937 whole entry) above
From the text: as §1, §2, §3, §4

[5] = target: KRAS G12C (Homo sapiens, UniProt P01116+P62937, G12C); test: Ras-Raf disruption/FRET/MOA assay, KRAS G12C; assay type: biochemical; settings: disruption of BRAF RBD binding, with Cyclophilin A; read-out: KRAS G12C FRET IC50
Sequence of KRAS G12C (P01116 1-169 isoform P01116-2 G12C limits assumed): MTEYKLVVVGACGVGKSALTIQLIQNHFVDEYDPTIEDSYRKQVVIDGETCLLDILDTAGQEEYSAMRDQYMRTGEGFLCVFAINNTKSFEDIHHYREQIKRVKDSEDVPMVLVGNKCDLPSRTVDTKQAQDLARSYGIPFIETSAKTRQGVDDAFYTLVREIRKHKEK
Sequence of KRAS G12C (P62937 whole entry): as the sequence (P62937 whole entry) above
From the text: as §1, §2, §3, §4

[6] = tested on: AsPC-1 (K-Ras G12D); test: Potency assay: pERK in AsPC-1 cells; assay type: cell-based; settings: Homo sapiens
[7] = tested on: AsPC-1 (K-Ras G12D); test: CellTiter-Glo cell viability assay, AsPC-1; assay type: cell-based; settings: Homo sapiens, ASPC1, 120 h, read-out: AsPC-1 Cell Viability IC50
Outline: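 Luminescent viability readout on day 5, plates first brought to room temperature for ~30 min; compounds added straight to plated RAS-mutant cells. Values expressed as percent of mean DMSO signal, curves fitted with a four-parameter logistic model.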

[8] = target: KRAS G13C (Homo sapiens, UniProt P01116+P62937, G13C); test: Ras-Raf disruption/FRET/MOA assay, KRAS G13C; assay type: biochemical; settings: disruption of BRAF RBD binding, with Cyclophilin A; read-out: KRAS G13C FRET IC50
Sequence of KRAS G13C (P01116 1-169 isoform P01116-2 G13C limits assumed): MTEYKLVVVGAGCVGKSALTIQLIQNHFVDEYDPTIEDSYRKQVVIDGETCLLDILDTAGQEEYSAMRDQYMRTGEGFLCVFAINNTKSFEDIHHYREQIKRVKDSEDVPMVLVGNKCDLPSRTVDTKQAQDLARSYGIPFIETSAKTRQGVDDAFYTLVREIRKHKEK
Sequence of KRAS G13C (P62937 whole entry): as the sequence (P62937 whole entry) above
From the text: as §1, §2, §3, §4

[9] = target: T1, NRAS G12C (Homo sapiens, UniProt P01111+P62937, G12C); test: Ras-Raf disruption/FRET/MOA assay, NRAS G12C; assay type: biochemical; settings: NRAS G12C; read-out: NRAS G12C FRET data IC50
T1 construct: His6
T1 sequence (P01111 whole entry G12C): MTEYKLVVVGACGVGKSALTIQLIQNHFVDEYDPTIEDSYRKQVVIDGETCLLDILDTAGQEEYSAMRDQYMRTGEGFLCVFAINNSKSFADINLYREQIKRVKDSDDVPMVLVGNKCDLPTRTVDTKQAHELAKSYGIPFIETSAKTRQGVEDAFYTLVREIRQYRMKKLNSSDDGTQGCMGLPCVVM
T1 sequence (P62937 whole entry): as the sequence (P62937 whole entry) above
From the text: as §1, §2, §3, §4

[10] = target: KRAS G12V (Homo sapiens, UniProt P01116+P62937, G12V); test: Ras-Raf disruption/FRET/MOA assay, KRAS G12V; assay type: biochemical; settings: disruption of BRAF RBD binding, with Cyclophilin A; read-out: KRAS G12V FRET IC50
Sequence of KRAS G12V (P01116 1-169 isoform P01116-2 G12V limits assumed): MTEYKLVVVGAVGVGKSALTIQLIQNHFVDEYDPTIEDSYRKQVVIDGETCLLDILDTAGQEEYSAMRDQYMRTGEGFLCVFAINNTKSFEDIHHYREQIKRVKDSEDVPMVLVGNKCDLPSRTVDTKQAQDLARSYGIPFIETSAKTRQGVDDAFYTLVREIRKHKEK
Sequence of KRAS G12V (P62937 whole entry): as the sequence (P62937 whole entry) above
From the text: as §1, §2, §3, §4

[11] = ASPC1, AsPC-1 cells, K-Ras G12D, read-out: pERK EC50 (AsPC-1 KRAS G12D)
[12] = AsPC-1, K-Ras G12D, 5-day treatment
[13] = ASPC1, read-out: pERK EC50 (AsPC-1 KRAS G12D)

Sequence of KRAS G13D (P01116 1-169 isoform P01116-2 G13D limits assumed): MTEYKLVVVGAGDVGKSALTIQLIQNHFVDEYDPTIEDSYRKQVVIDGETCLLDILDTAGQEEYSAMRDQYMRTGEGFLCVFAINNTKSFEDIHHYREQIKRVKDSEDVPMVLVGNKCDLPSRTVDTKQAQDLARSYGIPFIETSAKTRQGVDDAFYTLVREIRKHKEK
Sequence of KRAS G13D (P62937 whole entry, the tested form may be a part): as the sequence (P62937 whole entry) above

Compound	IC50 [1] [nM]	IC50 [2] [nM]	IC50 [3] [nM]	IC50 [4] [nM]	IC50 [5] [nM]	EC50 [6, 11] [nM]	IC50 [7, 12] [nM]	IC50 [8] [nM]	IC50 [9] [nM]	IC50 [10] [nM]	EC50 [6, 13] [nM]	IC50 [7] [nM]
CCn1c(-c2cccnc2[C@H](C)OC)c2c3cc(ccc31)-c1cc(O)cc(c1)C[C@H](NC(=O)[C@H](C(C)C)N1CC[C@@]3(CCN(C[C@H]4CN4)C3)C1=O)C(=O)N1CCC[C@H](N1)C(=O)OCC(C)(C)C2 (single isomer, unassigned) [Example 139]	10 to 100	10 to 100	10 to 100	10 to 100	< 10	< 5000	1000 to 10000	< 10	< 10	10 to 100		
CCn1c(-c2cnccc2COC)c2c3cc(ccc31)-c1cc(O)cc(c1)C[C@H](NC(=O)[C@H](C(C)C)N(C)C(=O)CN(C)C(=O)[C@@H]1CN1C(C)=O)C(=O)N1CCC[C@H](N1)C(=O)OCC(C)(C)C2 [Compound 35]	100 to 1000	10 to 100	100 to 1000	10 to 100	10 to 100			10 to 100	10 to 100	100 to 1000	< 5000	1000 to 10000
CCn1c(-c2cnccc2COC)c2c3cc(ccc31)-c1cc(O)cc(c1)C[C@H](NC(=O)[C@H](C(C)C)N(C)C(=O)CN(C)C(=O)[C@@H]1CN1C(=O)OC)C(=O)N1CCC[C@H](N1)C(=O)OCC(C)(C)C2 [Compound 39]	100 to 1000	10 to 100	100 to 1000	100 to 1000	10 to 100			10 to 100	10 to 100	100 to 1000	< 5000	1000 to 10000
CCn1c(-c2cnccc2COC)c2c3cc(ccc31)-c1cc(O)cc(c1)C[C@H](NC(=O)[C@H](C(C)C)N(C)C(=O)CN(C)C(=O)[C@H]1[C@@H](C)N1[S@+]([O-])C(C)(C)C)C(=O)N1CCC[C@H](N1)C(=O)OCC(C)(C)C2 (stereo partly drawn) [Compound 53]	100 to 1000	10 to 100	100 to 1000	10 to 100	10 to 100			10 to 100	10 to 100	100 to 1000	< 5000	1000 to 10000
CCn1c(-c2cnccc2COC)c2c3cc(ccc31)-c1cc(O)cc(c1)C[C@H](NC(=O)[C@H](C(C)C)N(C)C(=O)CN(C)C(=O)[C@@H]1[C@H](C)N1[S@@+]([O-])C(C)(C)C)C(=O)N1CCC[C@H](N1)C(=O)OCC(C)(C)C2 (stereo partly drawn) [Compound 54]	100 to 1000	10 to 100	100 to 1000	10 to 100	10 to 100			10 to 100	10 to 100	100 to 1000	< 5000	1000 to 10000
CCn1c(-c2cccnc2[C@H](C)OC)c2c3cc(ccc31)-c1cc(O)cc(c1)C[C@H](NC(=O)[C@H](C(C)C)N(C)C(=O)[C@@H]1CN(C(=O)[C@H]3CN3)C[C@@H]1C)C(=O)N1CCC[C@H](N1)C(=O)OCC(C)(C)C2 [Compound 88]	10 to 100	10 to 100	10 to 100	10 to 100	< 10	< 5000	100 to 1000	10 to 100	< 10	10 to 100		
